Measurements taken from ChEMBL document CHEMBL5346862, “Discovery of the thieno[2,3-d]pyrimidine-2,4-dione derivative 21a: A potent and orally bioavailable gonadotropin-releasing hormone receptor antagonist” (Eur J Med Chem, 2022).

Columns and labels:
[1] = AUC(last) in Sprague-Dawley rat at 12 mg/kg, po measured for 24 hrs by LC/MS analysis; type: ADME, organism-based; design: time 24 hrs, dose 12 mg/kg, route po; settings: in vivo
[2] = Apparent permeability across basolateral to apical side in human Caco-2 cells incubated for 180 mins by LC/MS/MS analysis; type: ADME, cell-based; settings: for Papp B→A at 3 h: Caco-2
[3] = Half-life in Sprague-Dawley rat at 1 mg/kg, iv measured for 24 hrs by LC/MS analysis; type: ADME, organism-based; settings: in vivo
[4] = Tmax in Sprague-Dawley rat at 12 mg/kg, po measured for 24 hrs by LC/MS analysis; type: ADME, organism-based; settings: in vivo
[5] = Intrinsic clearance in human liver microsomes incubated for 15 mins in presence of NADPH by LC-MS analysis; type: ADME, Microsome; settings: read-out: CLH
[6] = AUC(last) in Sprague-Dawley rat at 1 mg/kg, iv measured for 24 hrs by LC/MS analysis; type: ADME, organism-based; design: dose 1 mg/kg, time 24 hrs, route iv; settings: in vivo
[7] = Cmax in Sprague-Dawley rat at 12 mg/kg, po measured for 24 hrs by LC/MS analysis; type: ADME, organism-based; design: dose 12 mg/kg, time 24 hrs, route po; settings: in vivo
[8] = Intrinsic clearance in rat liver microsomes incubated for 15 mins in presence of NADPH by LC-MS analysis; type: ADME, Microsome; settings: read-out: CLH
[9] = Half-life in Sprague-Dawley rat at 12 mg/kg, po measured for 24 hrs by LC/MS analysis; type: ADME, organism-based; settings: in vivo
[10] = Clearance in Sprague-Dawley rat at 1 mg/kg, iv measured for 24 hrs by LC/MS analysis; type: ADME, organism-based; settings: in vivo
[11] = Oral bioavailability in Sprague-Dawley rat at 12 mg/kg measured for 24 hrs by LC/MS analysis; type: ADME, organism-based; settings: in vivo
[12] = Apparent permeability across apical to basolateral side in human Caco-2 cells incubated for 180 mins by LC/MS/MS analysis; type: ADME, cell-based; settings: for Papp A→B at 3 h: Caco-2
[13] = Cmax in Sprague-Dawley rat at 1 mg/kg, iv measured for 24 hrs by LC/MS analysis; type: ADME, organism-based; design: time 24 hrs, dose 1 mg/kg, route iv; settings: in vivo
[14] = Lipophilicity, log D of the compound at pH 7.4; type: physicochemical; settings: buffer
[15] = Drug uptake in Sprague-Dawley rat hypothalamus and pituitary at 12 mg/kg, po measured after 1 hr by LC-MS/MS analysis; type: ADME, organism-based, Hypothalamus/Pituitary gland; settings: read-out: Drug uptake
[16] = Drug uptake in Sprague-Dawley rat hypothalamus and pituitary at 12 mg/kg, po measured after 12 hrs by LC-MS/MS analysis; type: ADME, organism-based, Hypothalamus/Pituitary gland; settings: read-out: Drug uptake
[17] = Drug uptake in Sprague-Dawley rat heart at 12 mg/kg, po measured after 1 hr by LC-MS/MS analysis; type: ADME, organism-based; settings: read-out: Drug uptake
[18] = Drug uptake in Sprague-Dawley rat hypothalamus and pituitary at 12 mg/kg, po measured after 4 hrs by LC-MS/MS analysis; type: ADME, organism-based, Hypothalamus/Pituitary gland; settings: read-out: Drug uptake

| Compound | Papp B→A at 3 h [2] [×10⁻⁶ cm/s] | CLint scaled at […] [5] [mL/min/kg] | CLint scaled at […] [8] [mL/min/kg] | Papp A→B at 3 h [12] [×10⁻⁶ cm/s] | also measured |
| --- | --- | --- | --- | --- | --- |
| COCCN(C)Cc1c(-c2ccc(NC(=O)NOC)cc2)sc2c1c(=O)n(-c1ccc(OC)nn1)c(=O)n2Cc1c(F)cccc1F | 42.2 | < 6.75 | 15.8 | 0.031 | AUC(0-t) at 24 h [1]: 0.904 µM·h; half-life [3]: 2.6 h; Tmax [4]: 0.31 h; AUC(0-t) at 24 h [6]: 0.689 µM·h; Cmax [7]: 329 nM; half-life [9]: 4.33 h; clearance [10]: 38.7 mL/min/kg; bioavailability [11]: 10.9%; Cmax [13]: 1230 nM |
| CNc1ccc(-n2c(=O)c3c(CN(C)C)c(-c4ccc(NC(=O)NOC)cc4)sc3n(Cc3c(F)cccc3F)c2=O)nn1 | 0.5 | < 6.75 | 34.9 | 0.05 | – |
| COc1ccc(-n2c(=O)c3c(CN(C)C)c(-c4ccc(NC(=O)NOCC(F)F)cc4)sc3n(Cc3c(F)cccc3F)c2=O)nn1 | 15.7 | 7.38 | 45.4 | 0.01 | – |
| CCc1ccc(-n2c(=O)c3c(CN(C)C)c(-c4ccc(NC(=O)NOC)cc4)sc3n(Cc3c(F)cccc3F)c2=O)nn1 | 10.2 | 17.6 | 31.3 | 0.013 | – |
| C[C@H]1O[C@@H](O[C@H]2[C@@H](O)C[C@H](O[C@H]3[C@@H](O)C[C@H](O[C@H]4CC[C@@]5(C)[C@H](CC[C@@H]6[C@@H]5C[C@@H](O)[C@]5(C)[C@@H](C7=CC(=O)OC7)CC[C@]65O)C4)O[C@@H]3C)O[C@@H]2C)C[C@H](O)[C@@H]1O [DIGOXIN] | 12.8 | – | – | 0.013 | – |

Now from value to compound, other results behind:

| Papp B→A at 3 h [2] [×10⁻⁶ cm/s] | CLint scaled at […] [5] [mL/min/kg] | CLint scaled at […] [8] [mL/min/kg] | Papp A→B at 3 h [12] [×10⁻⁶ cm/s] | Compound | also measured |
| --- | --- | --- | --- | --- | --- |
| 15.1 | < 6.75 | 16.6 | 0.019 | CONC(=O)Nc1ccc(-c2sc3c(c2CN(C)C)c(=O)n(-c2ccc(OC(F)F)nn2)c(=O)n3Cc2c(F)cccc2F)cc1 | – |
| 21.1 | 52 | 211 | 0.051 | CONC(=O)Nc1ccc(-c2sc3c(c2CN(C)C)c(=O)n(-c2cccc(OC)c2F)c(=O)n3Cc2c(F)cccc2F)cc1 | – |
| – | 14.2 | 37.1 | 0.984 | CONC(=O)Nc1ccc(-c2sc3c(c2CN(C)CCOC(F)(F)F)c(=O)n(-c2ccc(OC)nn2)c(=O)n3Cc2c(F)cccc2F)cc1 | AUC(0-t) at 24 h [1]: 7.37 µM·h; half-life [3]: 2.79 h; Tmax [4]: 1.13 h; AUC(0-t) at 24 h [6]: 1.37 µM·h; Cmax [7]: 920 nM; half-life [9]: 4.86 h; clearance [10]: 17.5 mL/min/kg; bioavailability [11]: 44.7%; Cmax [13]: 3920 nM |
| 4.58 | < 6.75 | < 13.5 | 0.011 | CONC(=O)Nc1ccc(-c2sc3c(c2CN(C)C)c(=O)n(-c2ccc(OC)nn2)c(=O)n3Cc2c(F)cccc2C(F)(F)F)cc1 | – |
| 17.2 | < 6.75 | 38.9 | 0.009 | COc1ccc(-n2c(=O)c3c(CN(C)C)c(-c4ccc(NC(=O)NOCC(F)(F)F)cc4)sc3n(Cc3c(F)cccc3F)c2=O)nn1 | – |
| – | 5.22 | 29.5 | – | CONC(=O)Nc1ccc(-c2sc3c(c2CN(C)C)c(=O)n(-c2ccc(OC)nn2)c(=O)n3Cc2c(F)cccc2F)cc1 [RELUGOLIX] | AUC(0-t) at 24 h [1]: 0.234 µM·h; logD [14]: 1.24; Papp ([2]; caco-2, 3 h): 13.84 10^-6 cm/s; half-life [3]: 3.64 h; Tmax [4]: 0.33 h; AUC(0-t) at 24 h [6]: 0.34 µM·h; Cmax [7]: 35.3 nM; concentration at 1 h [15]: 4.46 ng/g; half-life [9]: 3.88 h; clearance [10]: 78.3 mL/min/kg; bioavailability [11]: 5.7%; Papp ([12]; caco-2, 3 h): 0.007 10^-6 cm/s; Cmax [13]: 544 nM; concentration at 12 h [16]: 3.2 ng/g; concentration at 1 h [17]: 429 ng/g; concentration at 4 h [18]: 9.2 ng/g |
